Measured values from PubChem BioAssay (NCI).
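Step 1: Grow cells in 96-well plates. Step 2: Expose to compound for 48 hours at 5 concentrations. Step 3: Interpolate endpoints linearly; if unreached, use highest concentration. At the GI50, growth is halved. TGI: concentration producing complete growth inhibition.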

Legend:
Assay in all cases: NCI-60 cell line screen, 48 h
786-0 renal = system: 786-0 renal
A498 renal = system: A498 renal
A549 NSCLC = system: A549 NSCLC
ACHN renal = system: ACHN renal
BT-549 breast = system: BT-549 breast
CAKI-1 renal = system: CAKI-1 renal
CCRF-CEM leukemia = system: CCRF-CEM leukemia
COLO 205 colon = system: COLO 205 colon
DU-145 prostate = system: DU-145 prostate
EKVX NSCLC = system: EKVX NSCLC
HCC-2998 colon = system: HCC-2998 colon
HCT-116 colon = system: HCT-116 colon
HCT-15 colon = system: HCT-15 colon
HL-60(TB) leukemia = system: HL-60(TB) leukemia
HOP-62 NSCLC = system: HOP-62 NSCLC
HOP-92 NSCLC = system: HOP-92 NSCLC
HS 578T breast = system: HS 578T breast
HT29 colon = system: HT29 colon
IGROV1 ovarian = system: IGROV1 ovarian
K-562 leukemia = system: K-562 leukemia
KM12 colon = system: KM12 colon
LOX IMVI melanoma = system: LOX IMVI melanoma
M14 melanoma = system: M14 melanoma
MALME-3M melanoma = system: MALME-3M melanoma
MCF7 breast = system: MCF7 breast
MDA-MB-231 breast = system: MDA-MB-231 breast
MDA-MB-435 = system: MDA-MB-435
MOLT-4 leukemia = system: MOLT-4 leukemia
NCI-H226 lung = system: NCI-H226 lung
NCI-H23 lung = system: NCI-H23 lung
NCI-H460 lung = system: NCI-H460 lung
NCI-H522 lung = system: NCI-H522 lung
NCI/ADR-RES ovarian = system: NCI/ADR-RES ovarian
OVCAR-3 ovarian = system: OVCAR-3 ovarian
OVCAR-4 ovarian = system: OVCAR-4 ovarian
OVCAR-5 ovarian = system: OVCAR-5 ovarian
OVCAR-8 ovarian = system: OVCAR-8 ovarian
PC-3 prostate = system: PC-3 prostate
RPMI-8226 leukemia = system: RPMI-8226 leukemia
RXF 393 renal = system: RXF 393 renal
SF-268 CNS = system: SF-268 CNS
SF-295 CNS = system: SF-295 CNS
SF-539 CNS = system: SF-539 CNS
SK-MEL-2 melanoma = system: SK-MEL-2 melanoma
SK-MEL-28 melanoma = system: SK-MEL-28 melanoma
SK-MEL-5 melanoma = system: SK-MEL-5 melanoma
SK-OV-3 ovarian = system: SK-OV-3 ovarian
SN12C renal = system: SN12C renal
SNB-19 CNS = system: SNB-19 CNS
SNB-75 CNS = system: SNB-75 CNS
SW-620 colon = system: SW-620 colon
T-47D breast = system: T-47D breast
TK-10 renal = system: TK-10 renal
U251 CNS = system: U251 CNS
UACC-257 melanoma = system: UACC-257 melanoma
UACC-62 melanoma = system: UACC-62 melanoma
UO-31 renal = system: UO-31 renal

COc1ccc(-n2c(SCC(=O)Nc3ccc(-c4nc5ccccc5[nH]4)cc3)nc3ccccc3c2=O)cc1
GI50 (786-0 renal): 17.7 µM
TGI (786-0 renal): 34.2 µM
GI50 (A498 renal): > 100 µM
TGI (A498 renal): > 100 µM
GI50 (A549 NSCLC): 3.58 µM
TGI (A549 NSCLC): 14.2 µM
GI50 (ACHN renal): 17.1 µM
TGI (ACHN renal): 33.7 µM
GI50 (BT-549 breast): 8.06 µM
TGI (BT-549 breast): 24.5 µM
GI50 (CAKI-1 renal): 29.7 µM
TGI (CAKI-1 renal): > 100 µM
GI50 (CCRF-CEM leukemia): 6.15 µM
TGI (CCRF-CEM leukemia): > 100 µM
GI50 (COLO 205 colon): 28.3 µM
TGI (COLO 205 colon): 76.6 µM
GI50 (DU-145 prostate): 10.9 µM
TGI (DU-145 prostate): 33 µM
GI50 (EKVX NSCLC): 47.2 µM
TGI (EKVX NSCLC): > 100 µM
GI50 (HCC-2998 colon): 14.3 µM
TGI (HCC-2998 colon): 46 µM
GI50 (HCT-116 colon): 4.88 µM
TGI (HCT-116 colon): 26.2 µM
GI50 (HCT-15 colon): 2.95 µM
TGI (HCT-15 colon): 12 µM
GI50 (HL-60(TB) leukemia): 9.91 µM
TGI (HL-60(TB) leukemia): > 100 µM
GI50 (HOP-62 NSCLC): 23.3 µM
TGI (HOP-62 NSCLC): 59.6 µM
GI50 (HOP-92 NSCLC): 12.7 µM
TGI (HOP-92 NSCLC): 31.3 µM
GI50 (HS 578T breast): 21.6 µM
TGI (HS 578T breast): 71.5 µM
GI50 (HT29 colon): 15 µM
TGI (HT29 colon): 36.5 µM
GI50 (IGROV1 ovarian): 15.2 µM
TGI (IGROV1 ovarian): 42.9 µM
GI50 (K-562 leukemia): 4.82 µM
TGI (K-562 leukemia): > 100 µM
GI50 (KM12 colon): 51.4 µM
TGI (KM12 colon): > 100 µM
GI50 (LOX IMVI melanoma): 2.1 µM
TGI (LOX IMVI melanoma): 3.91 µM
GI50 (M14 melanoma): 13.1 µM
TGI (M14 melanoma): 55.5 µM
GI50 (MALME-3M melanoma): 2.58 µM
TGI (MALME-3M melanoma): 16.2 µM
GI50 (MCF7 breast): 2.05 µM
TGI (MCF7 breast): 5.11 µM
GI50 (MDA-MB-231 breast): 16.2 µM
TGI (MDA-MB-231 breast): 49.6 µM
GI50 (MDA-MB-435): 9.17 µM
TGI (MDA-MB-435): 27.6 µM
GI50 (MOLT-4 leukemia): 5.85 µM
TGI (MOLT-4 leukemia): > 100 µM
GI50 (NCI-H226 lung): > 100 µM
TGI (NCI-H226 lung): > 100 µM
GI50 (NCI-H23 lung): 10.2 µM
TGI (NCI-H23 lung): 35.1 µM
GI50 (NCI-H460 lung): 3.39 µM
TGI (NCI-H460 lung): 12.1 µM
GI50 (NCI-H522 lung): 14.5 µM
TGI (NCI-H522 lung): 32.3 µM
GI50 (NCI/ADR-RES ovarian): 16.7 µM
TGI (NCI/ADR-RES ovarian): > 100 µM
GI50 (OVCAR-3 ovarian): 18 µM
TGI (OVCAR-3 ovarian): 39.7 µM
GI50 (OVCAR-4 ovarian): 7.74 µM
TGI (OVCAR-4 ovarian): 20.8 µM
GI50 (OVCAR-5 ovarian): 23.7 µM
TGI (OVCAR-5 ovarian): > 100 µM
GI50 (OVCAR-8 ovarian): 18.1 µM
TGI (OVCAR-8 ovarian): 39.6 µM
GI50 (PC-3 prostate): 18 µM
TGI (PC-3 prostate): 62.9 µM
GI50 (RPMI-8226 leukemia): 3.72 µM
TGI (RPMI-8226 leukemia): 70.5 µM
GI50 (RXF 393 renal): 12.7 µM
TGI (RXF 393 renal): 27.3 µM
GI50 (SF-268 CNS): 42.9 µM
TGI (SF-268 CNS): > 100 µM
GI50 (SF-295 CNS): 13.3 µM
TGI (SF-295 CNS): 27.9 µM
GI50 (SF-539 CNS): 14.1 µM
TGI (SF-539 CNS): 27.8 µM
GI50 (SK-MEL-2 melanoma): 50.7 µM
TGI (SK-MEL-2 melanoma): > 100 µM
GI50 (SK-MEL-28 melanoma): 3.52 µM
TGI (SK-MEL-28 melanoma): 13.4 µM
GI50 (SK-MEL-5 melanoma): 14 µM
TGI (SK-MEL-5 melanoma): 30.4 µM
GI50 (SK-OV-3 ovarian): > 100 µM
TGI (SK-OV-3 ovarian): > 100 µM
GI50 (SN12C renal): 11.3 µM
TGI (SN12C renal): 25.6 µM
GI50 (SNB-19 CNS): 17.9 µM
TGI (SNB-19 CNS): 60.2 µM
GI50 (SNB-75 CNS): 19.9 µM
TGI (SNB-75 CNS): 91.9 µM
GI50 (SW-620 colon): 6.63 µM
TGI (SW-620 colon): 42.5 µM
GI50 (T-47D breast): 17.3 µM
TGI (T-47D breast): 36.7 µM
GI50 (TK-10 renal): 21.6 µM
TGI (TK-10 renal): 42 µM
GI50 (U251 CNS): 15.1 µM
TGI (U251 CNS): 31.5 µM
GI50 (UACC-257 melanoma): 19 µM
TGI (UACC-257 melanoma): 39.2 µM
GI50 (UACC-62 melanoma): 15.8 µM
TGI (UACC-62 melanoma): 30.5 µM
GI50 (UO-31 renal): 11.8 µM
TGI (UO-31 renal): 29.1 µM
